Experiments:
[1] = 298.15 K; 101.33 kPa; Liquid
[2] = refractive index (Na D-line) (dimensionless); settings: 298.15 K; 101.33 kPa; Liquid; Standard Abbe refractometry
[3] = refractive index (Na D-line) (dimensionless); xn = mol fraction of the nth substance listed; settings: 298.15 K, 101 kPa, Liquid, Standard Abbe refractometry
[4] = xn = mol fraction of the nth substance listed; settings: 298.15 K, 101 kPa, Liquid, Vibrating tube method

CC(=O)CC(C)=O [2,4-pentanedione]
Settings | mass density [kg/m3] | refractive index
[1] | 971 | –
[2] | – | 1.4509

CC(=O)CC(C)=O [2,4-pentanedione] + ClC(Cl)Cl
Settings | mass density, [4] [kg/m3] | refractive index, [3]
x2 = 0.0498 | 988.5 | 1.4498
x2 = 0.0996 | 1009.2 | 1.4497
x2 = 0.2007 | 1052.6 | 1.4496
x2 = 0.3002 | 1097.2 | 1.4494
x2 = 0.4002 | 1144.3 | 1.4492
x2 = 0.4999 | 1193.6 | 1.4487
x2 = 0.5997 | 1245.4 | 1.4482
x2 = 0.7007 | 1300.4 | 1.4475
x2 = 0.7997 | 1356.8 | 1.4465
x2 = 0.899 | 1415.6 | 1.445
x2 = 0.9494 | 1446.3 | 1.4442

ClC(Cl)Cl [trichloromethane]
Settings | mass density [kg/m3] | refractive index
[1] | 1478 | –
[2] | – | 1.443
